Where a name gives a salt, the structure may show the parent alone.

One test has as its target T1, human farnesyl transferase (Homo sapiens, UniProt P49354+P49356).
T1 construct: human farnesyl transferase purified from THP1 cell cultures; endogenous in cells; host or cells: THP1 cell cultures (enzyme purified from the cells)
The experiment in a line: inhibition of farnesyl transferase ((3H) farnesyl transfer from (3H) FPP to p21 H-ras). It counts as biochemical.
Conditions: not given
The procedure: Farnesyl transferase activity is determined by the amount of (^3 H) farnesyl transferred from (^3 H) farnesylpyrophosphate [(^3 H) FPP] to the p21 H-ras protein. The standard reaction mixture is composed, for a final volume of […], of 50 mM Tris-HCl, 5 mM MgCl2, 5 mM dithiotreitol, 0.2% octyl b-D-glucopyranoside, 200 picomol p21 H-ras, 4.5 picomol (^3 H) FPP (activity 61000 dpm/picomol).
Reaction is initiated by adding approximately 5 ng of human farnesyl transferase purified from THP1 cell cultures. After incubation for 20 minutes at 37° C. in a microtitration plate containing 96 1-cm^3 wells per plate (Titer Plate®, Beckman), the reaction is stopped by adding 0.4 cm^3 of 0.1% SDS in methanol at 0° C. The mixture is then treated with 0.4 cm^3 of 30% trichloroacetic® acid (TCA) in methanol. The plates are left in ice for 1 hour. The precipitated contents are then retained on Filtermat®, Pharmacia), glass® fibre membranes with the filtration unit (Combi Cell Harvester®, Skatron), and rinsed with 6% trichloroacetic acid in distilled water. The membranes are dried in a microwave oven, then impregnated with scintillation medium by melting of Meltilex® (Pharmacia) under hot air, and lastly counted in cpm in a b-Plate counter® (LKB). Each test is repeated 3 times.
The unit of activity is defined as 1 picomole of (^3 H) FPP transferred to p21 H-ras in 20 minutes.
The percentage inhibition values are obtained by comparison of the tests with and without inhibitor after deduction of blanks, the IC50 values being measured on the basis of the inhibitions obtained with 9 different concentrations using Enzfitter® or Grafit® software.
`COc1ccccc1C(=O)C(=O)N1C[C@@H]2[C@]3(c4ccccc4)CC[C@@H](c4ccccc43)[C@]2(C(=O)O)C1` (racemic) [Example 42, (3aRS,4SR,9SR,9aRS)-4,9-ethano-2-[2-(2-methoxyphenyl)-2-oxoacetyl]-9-phenyl-2,3,3a,4,9,9a-hexahydro-1H-benzo[f]isoindole-3a-carboxylic acid]: the IC50 worked out at 8.45 µM. Same read-out and setting: in the case of `COc1ccccc1[C@H](C)C(=O)N1CC2C3(c4ccccc4)CCC(c4ccccc43)C2(C(=O)O)C1` (single isomer, unassigned) [Example 34] it was 0.59 µM.

`CSc1ccccc1CC(=O)N1CC2C3(c4ccccc4)CCC(c4ccccc43)C2(C(=O)O)C1` (single isomer, unassigned) [Example 31] gave an IC50 of 0.62 µM. Same read-out and setting: in the case of `COc1ccccc1CC(=O)N1C[C@H]2[C@@]3(c4ccccc4)CC[C@H](c4ccccc43)[C@@]2(C(=O)O)C1` (relative stereo) [Example 2, (3aRS, 4SR, 9SR, 9aRS)-4,9-ethano-2-(2-methoxyphenyl)acetyl-9-phenyl-2,3,3a,4,9,9a-hexahydro-1H-benzo[f]isoindole-3a-carboxylic acid] it was 0.31 µM; in that of `O=C(Cc1ccccc1Cl)N1C[C@@H]2[C@]3(c4ccccc4)CC[C@@H](c4ccccc43)[C@]2(C(=O)O)C1` (relative stereo) [Example 61, (3aRS,4SR,9SR,9aRS)-4,9-Ethano-2-(2-chlorophenyl)acetyl-9-phenyl-2,3,3a,4,9,9a-hexahydro-1H-benzo[f]isoindole-3a-carboxylic acid], 4.7 µM. The compound `CCOc1ccccc1CC(=O)N1C[C@H]2[C@@]3(c4ccccc4)CC[C@H](c4ccccc43)[C@@]2(C(=O)O)C1` [Example 75] showed an IC50 of 0.37 µM.

Still in this test, the particulars now being: human farnesyl transferase purified from THP1 cell cultures; p21 H-ras substrate; 20 minutes at 37° C.; 9 concentrations; read-out: in vitro inhibitory activity IC50.
`COc1ccccc1CC(=O)N1C[C@@H]2[C@]3(c4ccccc4)CC[C@@H](c4ccccc43)[C@]2(C(=O)NCCC(=O)O)C1` (relative stereo) [Example 50, N-[(3aRS,4SR,9SR,9aRS)-4,9-ethano-2-(2-methoxyphenyl)acetyl-9-phenyl-2,3,3a,4,9,9a-hexahydro-1H-benzo[f]isoindol-3a-yl]carbonyl-3-aminopropanoic acid]: the IC50 worked out at 1.3 µM. On the same count and under the same terms, in the case of `COc1ccccc1CC(=O)N1C[C@H]2[C@@]3(c4ccccc4)CC[C@H](c4ccccc43)[C@@]2(C(=O)NCCN(C)C)C1` (relative stereo) [Example 4, (3aRS, 4SR, 9SR, 9aRS)-N-(2-dimethylaminoethyl)-4,9-ethano-2-(2-methoxyphenyl)acetyl-9-phenyl-2,3,3a,4,9,9a-hexahydro-1H-benzo[f]isoindole-3a-carboxamide] it was 9.4 µM. Still for that read-out and setting: in the case of `C=C(C(=O)N1C[C@H]2[C@@]3(c4ccccc4)CC[C@H](c4ccccc43)[C@@]2(C(=O)N[C@H](C(=O)O)c2ccccc2)C1)c1ccccc1OC` [Example 81, N-[(3aS,4R,9R,9aS)-4,9-ethano-2-[(2-methoxy-phenyl)prop-2-en-1-oyl]-9-phenyl-2,3,3a,4,9,9a-hexahydro-1H-benzo[f]isoindol-3a-ylcarboxamide]-(S)-phenylglycine] it was 0.05 µM. The same measure, in the same setting: in the case of `COc1ccccc1CC(=O)N1C[C@H]2[C@@]3(c4ccccc4)CC[C@H](c4ccccc43)[C@@]2(NC(=O)CCC(=O)O)C1` (relative stereo) [Example 17, (3aRS, 4SR, 9SR, 9aRS)-4,9-ethano-3a-(3-carboxypropionyl)amino-2-(2-methoxyphenyl)acetyl-9-phenyl-2,3,3a,4,9,9a-hexahydro-1H-benzo[f]isoindole] it was 4.9 µM.

For `C=C(C(=O)N1C[C@H]2[C@@]3(c4ccccc4)CC[C@H](c4ccccc43)[C@@]2(C(=O)NC2CCSc3ccccc32)C1)c1ccccc1OC` (stereo partly drawn) [Example 88, (3aS,4R,9R,9aS)-N-[(R,S)-4-benzo[b]thiopyranyl]-4,9-ethano-2-[(2-methoxyphenyl)prop-2-en-1-oyl]-9-phenyl-2,3,3a,4,9,9a-hexahydro-1H-benzo[f]isoindole-3a-carboxamide], the 50% inhibitory concentration (IC50) is 2.5 µM. As for `C=C(C(=O)N1C[C@H]2[C@@]3(c4ccccc4)CC[C@H](c4ccccc43)[C@@]2(C(=O)N[C@H](C(=O)OC)c2ccccc2)C1)c1ccccc1OC` [Example 72], the IC50 was determined as 0.69 µM. Consider `O=C(Cc1ccccc1OCCCN1CCCC1)N1C[C@H]2[C@@]3(c4ccccc4)CC[C@H](c4ccccc43)[C@@]2(C(=O)O)C1` (relative stereo) [Example 32, hydrochloride of (3aRS, 4SR, 9SR, 9aRS)-4,9-ethano-2-[2-(3-pyrrolidinylpropyl)oxyphenyl]-acetyl-9-phenyl-2,3,3a,4,9,9a-hexahydro-1H-benzo[f]isoindole-3a-carboxylic acid], for which the IC50 amounted to 1.33 µM. With `C=C(C(=O)N1C[C@H]2[C@@]3(c4ccccc4)CC[C@H](c4ccccc43)[C@@]2(C(=O)NC(C)(C)c2ccccc2)C1)c1ccccc1OC` [Example 86, (3aS,4R,9R,9aS)-N-(2,2-dimethylbenzyl)-4,9-ethano-2[-(2-methoxyphenyl)prop-2-en-1-oyl]-9-phenyl-2,3,3a,4,9,9a-hexahydro-1H-benzo[f]isoindole-3a-carboxamide], the IC50 was 4.85 µM. Same read-out and setting: in the case of `COc1ccccc1CC(=O)N1C[C@@H]2[C@]3(c4ccccc4)CC[C@@H](c4ccccc43)[C@]2(C(=O)NOCc2ccccc2)C1` (racemic) [Example 45, (3aRS,4SR,9SR,9aRS)-N-benzyloxy-4,9-ethano-2-(2-methoxyphenylacetyl)-9-phenyl-2,3,3a,4,9,9a-hexahydro-1H-benzo[f]isoindole-3a-carboxamide] it was 1.27 µM; in that of `COc1ccccc1CC(=O)N1C[C@H]2[C@@]3(c4ccccc4)CC[C@H](c4ccccc43)[C@@]2(CC(=O)O)C1` (relative stereo) [Example 19, (3aRS, 4SR, 9SR, 9aRS)-4,9-ethano-2-(2-methoxyphenyl)acetyl-9-phenyl-2,3,3a,4,9,9a-hexahydro-1H-benzo[f]isoindol-3a-acetic acid], 5.6 µM. The same measure, in the same setting: in the case of `C=C(C(=O)N1C[C@H]2[C@@]3(c4ccccc4)CC[C@H](c4ccccc43)[C@@]2(C(=O)NCc2cscn2)C1)c1ccccc1OC` [Example 96, (3aS,4R,9R,9aS)-N-[(4-thiazolyl)-methyl]-4,9-ethano-2-[(2-methoxyphenyl)prop-2-en-1-oyl]-9-phenyl-2,3,3a,4,9,9a-hexahydro-1H-benzo[f]isoindole-3a-carboxamide] it was 0.36 µM; in that of `COc1ccccc1CC(=O)N1C[C@H]2[C@@]3(c4ccccc4)CC[C@H](c4ccccc43)[C@@]2(CC(C(=O)O)C(=O)O)C1` (relative stereo) [Example 24, 2-{(3aRS, 4SR, 9SR, 9aRS)-4,9-ethano-[(2-methoxyphenyl)acetyl]-9-phenyl-1,2,3,3a,9,9a-hexahydro-1H-benzo[f]isoindole-3a-}-methylmalonic acid], 4.2 µM; in that of `O=C(Cc1ccccc1OCc1ccccc1)N1C[C@@H]2[C@]3(c4ccccc4)CC[C@@H](c4ccccc43)[C@]2(C(=O)O)C1` (relative stereo) [Example 64, (3aRS,4SR,9SR,9aRS)-4,9-Ethano-2-(2-benzyloxyphenyl)acetyl-9-phenyl-2,3,3a,4,9,9a-hexahydro-1H-benzo[f]isoindole-3a-carboxylic acid], 0.75 µM.

Turning to `COc1ccccc1CC(=O)N1C[C@@H]2[C@]3(c4ccccc4)CC[C@@H](c4ccccc43)[C@]2(C(=O)NN)C1` (relative stereo) [Example 58, hydrazide of (3aRS,4SR,9SR,9aRS)-4,9-ethano-2-(2-methoxyphenyl)acetyl-9-phenyl-2,3,3a,4,9,9a-hexahydro-1H-benzo[f]isoindole-3a-carboxylic acid], the IC50 was determined as 5.05 µM. On the same count and under the same terms, in the case of `COc1ccccc1CC(=O)N1C[C@H]2[C@@]3(c4ccccc4)CC[C@H](c4ccccc43)[C@@]2(C(=O)N[C@H](C)c2ccccc2)C1` [Example 57, N-[(R)-1-phenylethyl]-4,9-ethano-2-(2-methoxyphenyl)acetyl-9-phenyl-2,3,3a(S),4(R),9(R),9a(S)-hexahydro-1H-benzo[f]isoindole-3a-carboxamide] it was 0.86 µM; in that of `COc1ccccc1CC(=O)N1C[C@H]2[C@@]3(c4ccccc4)CC[C@H](c4ccccc43)[C@@]2(CCC(=O)O)C1` (relative stereo) [Example 25, 3-[(3aRS, 4SR, 9SR, 9aRS)-4,9-ethano-2-(2-methoxyphenyl)acetyl-9-phenyl-1,2,3,3a,9,9a-hexahydro-1H-benzo[f]isoindol-3a-yl]propionic acid], 2.6 µM.

`COc1ccccc1CC(=O)N1C[C@@H]2[C@]3(c4ccccc4)CC[C@@H](c4ccccc43)[C@]2(C(=O)N(C)CC(=O)O)C1` (relative stereo) [Example 49, N-[(3aRS,4SR,9SR,9aRS)-4,9-ethano-2-(2-methoxyphenyl)acetyl-9-phenyl-2,3,3a,4,9,9a-hexahydro-1H-benzo[f]isoindol-3a-yl]carbonyl-N-methylglycine]: the IC50 was 1.1 µM.

For orientation: IC50 means the point on the concentration scale where inhibition reaches its midpoint.

For the origin of these results see patent US5936097A, “4,9-ethano-benzo(F)isoindole derivatives as farnesyl transferase inhibitors” (Rhone-Poulenc Rorer, S.A., priority 1995, dated 1999).
